Data set [1] in a line: Drug level in feces of Sprague-Dawley rat treated with [14C]PF-00734200 at 5 mg/kg, po administered as single dose by LC-MS/MS method. To be noted: in vivo. Details: dose 5 mg/kg, route oral. It counts as ADME, organism-based.
Data set [2] can be described thus: Drug level in urine of human treated with [14C]PF-00734200 at […], po administered as single dose by LC-MS/MS method. The class given is ADME, organism-based. To be noted: in vivo. Further details: route oral.
In data set [3] the test system is Homo sapiens. Briefly: Total drug level in human treated with [14C]PF-00734200 assessed as total radio activity at […], po administered as single dose […]. It counts as ADME, organism-based. Further details: route oral. The conditions noted are these: in vivo.
For data set [4], the system named is Rattus norvegicus. Briefly: Total drug level in Sprague-Dawley rat treated with [14C]PF-00734200 assessed as total radio activity at 5 mg/kg, po administered as single dose […]. It counts as ADME, organism-based. Further details: dose 5 mg/kg, route oral. To be noted: in vivo.
Data set [5] can be described thus: Retention time of the compound by HPLC method. It counts as physicochemical.
Data set [6] is described as follows: Drug level in urine of Sprague-Dawley rat treated with [14C]PF-00734200 at 5 mg/kg, po administered as single dose by LC-MS/MS method. The conditions noted are these: in vivo. It counts as ADME, organism-based. Details: dose 5 mg/kg, route oral.
In data set [7] the test system is Homo sapiens. In words: AUC (0 to 168 hrs) in human treated with [14C]PF-00734200 at […], po administered as single dose. It counts as ADME, organism-based, Plasma. Details: time < 168 hr, route oral. The conditions noted are these: in vivo.
Data set [8] has as its system Homo sapiens. Briefly: AUC (0 to infinity) in human treated with [14C]PF-00734200 at […], po administered as single dose. It counts as ADME, organism-based, Plasma. Details: route oral, time infinity. The conditions noted are these: in vivo.
The test system of data set [9] is Homo sapiens. Briefly: Tmax in human treated with [14C]PF-00734200 at […], po administered as single dose. The class given is ADME, organism-based. Details: route oral. To be noted: in vivo.
In data set [10] the test system is Homo sapiens. Briefly: Cmax in human treated with [14C]PF-00734200 at […], po administered as single dose. The class given is ADME, organism-based. Details: route oral. The conditions noted are these: in vivo.
The subject of data set [11] is Homo sapiens. Briefly: Elimination half life in human treated with [14C]PF-00734200 at […], po administered as single dose. It counts as ADME, organism-based. Details: route oral. To be noted: in vivo.
Data set [12] deals with Homo sapiens. Briefly: Oral clearance in human treated with [14C]PF-00734200 at […], po administered as single dose. Further details: route oral. To be noted: in vivo. It counts as ADME, organism-based.
The nature of data set [13]: Drug level in urine of beagle dog treated with [14C]PF-00734200 at 5 mg/kg, po administered as single dose by LC-MS/MS method. It counts as ADME, organism-based, Canis lupus familiaris. Further details: dose 5 mg/kg, route oral. To be noted: in vivo.
The nature of data set [14]: Drug level in feces of beagle dog treated with [14C]PF-00734200 at 5 mg/kg, po administered as single dose by LC-MS/MS method. It counts as ADME, organism-based, Canis lupus familiaris. The conditions noted are these: in vivo. Details: dose 5 mg/kg, route oral.
Data set [15] deals with Canis familiaris. In words: Total drug level in beagle dog treated with [14C]PF-00734200 assessed as total radio activity at 5 mg/kg, po administered as single dose […]. The class given is ADME, organism-based, Canis lupus familiaris. Further details: dose 5 mg/kg, route oral. The conditions noted are these: in vivo.
Data set [16] in a line: Drug level in feces of human treated with [14C]PF-00734200 at […], po administered as single dose by LC-MS/MS method. The class given is ADME, organism-based. Details: route oral. The conditions noted are these: in vivo.
Data set [17] concerns Plasma. In words: Drug level in Sprague-Dawley rat plasma treated with [14C]PF-00734200 at 5 mg/kg, po administered as single dose by LC-MS/MS method. The conditions noted are these: in vivo. The class given is ADME, organism-based. Details: dose 5 mg/kg, route oral.
Data set [18] concerns Plasma. Briefly: Drug level in beagle dog plasma treated with [14C]PF-00734200 at 5 mg/kg, po administered as single dose by LC-MS/MS method. It counts as ADME, organism-based, Canis lupus familiaris. Further details: dose 5 mg/kg, route oral. The conditions noted are these: in vivo.
In data set [19] the test system is Serum. In words: Drug level in human serum treated with [14C]PF-00734200 at […], po administered as single dose by LC-MS/MS method. The conditions noted are these: in vivo. Details: route oral. It counts as ADME, organism-based.
The target in data set [20] is T1, Cytochrome P450 2D6 (Homo sapiens, UniProt P10635). Briefly: Drug metabolism assessed as human CYP2D6-mediated metabolite (3,3-difluoropyrrolidin-1-yl){(2S,4S)-4-[4-(5-hydroxypyrimidin-2-yl)piperazin-1-yl]pyrrolidin-2-yl}methanone formation by LC-MS/MS method. The class given is ADME. The conditions noted are these: recombinant enzyme.
In data set [21] the target is T2, Cytochrome P450 3A4 (Homo sapiens, UniProt P08684). Briefly: Drug metabolism assessed as human CYP3A4-mediated metabolite (3,3-difluoropyrrolidin-1-yl){(2S,4S)-4-[4-(5-hydroxypyrimidin-2-yl)piperazin-1-yl]pyrrolidin-2-yl}methanone formation by LC-MS/MS method. The class given is ADME. The conditions noted are these: recombinant enzyme.
Data set [22] can be described thus: Drug level in bile of bile duct-cannulated Sprague-Dawley rat treated with [14C]PF-00734200 at 5 mg/kg, po administered as single dose by LC-MS/MS method. The class given is ADME, organism-based. Further details: dose 5 mg/kg, route oral. To be noted: in vivo.
For data set [23], the target named is T1, Cytochrome P450 2D6. In words: Drug level assessed as human CYP2D6-mediated compound formation from PF-00734200 by LC-MS/MS method. To be noted: recombinant enzyme. It counts as ADME.
Data set [24] deals with T2, Cytochrome P450 3A4. Briefly: Drug level assessed as human CYP3A4-mediated compound formation from PF-00734200 by LC-MS/MS method. It counts as ADME. To be noted: recombinant enzyme.

T1 sequence (P10635 whole entry): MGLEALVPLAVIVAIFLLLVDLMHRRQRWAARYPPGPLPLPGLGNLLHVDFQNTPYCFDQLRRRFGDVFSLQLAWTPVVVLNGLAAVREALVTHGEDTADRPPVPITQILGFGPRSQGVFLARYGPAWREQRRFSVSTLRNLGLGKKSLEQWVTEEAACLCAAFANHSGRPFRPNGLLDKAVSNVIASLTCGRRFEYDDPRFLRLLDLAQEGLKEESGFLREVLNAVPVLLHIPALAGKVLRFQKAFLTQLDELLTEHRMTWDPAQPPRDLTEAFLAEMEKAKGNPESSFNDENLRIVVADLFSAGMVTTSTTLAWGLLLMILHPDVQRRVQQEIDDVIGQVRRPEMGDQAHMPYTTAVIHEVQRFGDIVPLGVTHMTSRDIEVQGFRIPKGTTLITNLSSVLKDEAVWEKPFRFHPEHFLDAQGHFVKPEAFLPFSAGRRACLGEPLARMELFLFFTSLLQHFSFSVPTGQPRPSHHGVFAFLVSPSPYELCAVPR
T2 sequence (P08684 whole entry): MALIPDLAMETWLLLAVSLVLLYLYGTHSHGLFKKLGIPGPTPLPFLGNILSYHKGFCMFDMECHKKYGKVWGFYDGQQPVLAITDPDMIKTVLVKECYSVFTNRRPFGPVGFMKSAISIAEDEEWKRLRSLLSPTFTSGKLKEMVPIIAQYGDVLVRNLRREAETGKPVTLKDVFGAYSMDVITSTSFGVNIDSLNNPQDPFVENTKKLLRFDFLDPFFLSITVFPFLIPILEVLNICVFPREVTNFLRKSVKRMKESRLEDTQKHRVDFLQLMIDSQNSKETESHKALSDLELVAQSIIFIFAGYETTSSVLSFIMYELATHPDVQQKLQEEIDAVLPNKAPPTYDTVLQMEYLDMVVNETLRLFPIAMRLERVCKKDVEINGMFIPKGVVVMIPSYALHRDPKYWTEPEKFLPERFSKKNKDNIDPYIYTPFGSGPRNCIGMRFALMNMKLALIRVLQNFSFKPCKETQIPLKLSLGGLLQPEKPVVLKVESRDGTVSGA

With `N=C(N)N1CCN([C@H]2C[C@@H](C(=O)N3CCC(F)(F)C3)N(C=O)C2)CC1`, the Drug uptake in data set [1], in data set [2], in [3] and in [4] was 0.1% each time. Besides, the Retention_time in data set [5] worked out at 20.1 min.
In the case of `O=C([C@@H]1C[C@H](N2CCN(c3ncccn3)CC2)CN1)N1CCC(F)(F)C1` [GOSOGLIPTIN], the Drug uptake in [6] is 11%; in [1], 1.1%; in [13] it was 25.6%; in [14], 1.8%; in data set [15], 27.4%; in data set [2], 48.5%. Further, the Drug uptake in data set [16] is 0.4%; in data set [3], 48.9%; in data set [17], 79.9%; in data set [18] it was 80.1%; in data set [4] it was 12.1%; in data set [19], 94.5%. The AUC in data set [7] is 2560 ng·h/mL; in data set [8] it was 2660 ng·h/mL. Further, the Tmax in data set [9] is 1 h. In [10], this compound displayed a Cmax of 241.3 ng/mL. In data set [11], the “beta t1/2” value turned out to be 63.5 h. The compound further yielded a CL/F in data set [12] of 125.3 mL/min. Also, the Drug metabolism result in data set [20] and in [21] was “metabolite_detected” each time.
`NC(=O)N1C[C@@H](N2CCN(c3ncc(O)cn3)CC2)C[C@H]1C(=O)N1CCC(F)(F)C1` gave a Drug uptake in [13] of 0.6%. This compound also had a Retention_time in data set [5] of 26 min.
On to `O=C([C@@H]1C[C@H](N2CCN(c3ncccn3)CC2)CN1[C@@H]1O[C@H](CO)[C@@H](O)[C@H](O)[C@H]1O)N1CCC(F)(F)C1`, for which the Drug uptake in data set [2] and in data set [3] was 0.9% each time. In data set [5], this compound showed a Retention_time of 29.2 min.
Turning to `O=C([C@@H]1C[C@H](N2CCN(c3ncc(OS(=O)(=O)O)cn3)CC2)CN1)N1CCC(F)(F)C1`, the results for the Drug uptake in data set [13], in data set [18] and in [22] were 2.6%, 1.8% and 2.1%, respectively. The Retention_time in data set [5] was 24.5 min.
`NC(=O)N1C[C@@H](N2CCN(c3ncccn3)CC2)C[C@H]1C(=O)N1CCC(F)(F)C1`: the Drug uptake in data set [2] and in [3] was 1% each time. The compound also registered a Retention_time in [5] of 30.2 min.
Turning to `N=C(N)N1CCN([C@@H]2CN[C@H](C(=O)N3CCC(F)(F)C3)C2)CC1`, the Drug uptake in data set [6] turned out to be 3.1%; in data set [1], 17.8%; in [13], 1.2%; in data set [14] it was 4.6%; in data set [15], 5.8%; in [16], 3%. Also, the Drug uptake is 3% in data set [3]; 2.6% in data set [17]; 0.8% in data set [18]; 20.9% in data set [4]; 7.3% in data set [22]. In data set [5], this compound registered a Retention_time of 3 min.
As for `O=C([C@@H]1C[C@H](N2CCN(c3ncc(O)cn3)CC2)CN1[C@@H]1O[C@H](CO)[C@@H](O)[C@H](O)[C@H]1O)N1CCC(F)(F)C1`, the Retention_time in [5] was determined as 28.2 min.
Consider `O=C([C@@H]1C[C@H](N2CCN(c3ncc(O)cn3)CC2)CN1)N1CCC(F)(F)C1`, for which the Drug uptake in data set [6] is recorded as 7.3%; in data set [1], 32.3%; in data set [13], 30.1%; in data set [14] it was 9%; in [15], 39.1%; in [2], 17.9%. Also, the Drug uptake in data set [16] came to 2.7%; in data set [3] it was 20.6%; in data set [17], 2.7%; in data set [18], 13.7%; in data set [4] it was 39.6%; in data set [19], 4%. The Drug metabolism result in data set [23] and in data set [24] was “metabolite_detected” each time. This compound also registered a Retention_time in data set [5] of 25.5 min.
Consider `O=C(O)[C@H]1O[C@@H](Oc2cnc(N3CCN([C@@H]4CN[C@H](C(=O)N5CCC(F)(F)C5)C4)CC3)nc2)[C@H](O)[C@@H](O)[C@@H]1O`, for which the Drug uptake in [6] amounted to 2.9%; in data set [13] it was 1%; in data set [15], 1%; in [17], 4.7%; in data set [18], 0.4%; in data set [4] it was 2.9%. In data set [22], the Drug uptake was 50.4%. The Retention_time in data set [5] is reported as 14.3 min.
Regarding `c1cnc(N2CCNCC2)nc1` [2-PIPERAZIN-1-YL-PYRIMIDINE], the Drug uptake is given as 1.4% in data set [6]; 0.9% in [13]; 0.9% in data set [15]; 1.7% in data set [17]; 0.7% in data set [18]; 1.4% in data set [4]. In addition, in data set [5], the Retention_time was determined as 6.5 min.
With `O=C(O)[C@@H]1C[C@H](N2CCN(c3ncccn3)CC2)CN1`, the Drug uptake in [6] is 3.2%; in data set [1], 2.3%; in [13], 2.5%; in data set [15], 2.5%; in data set [2], 1.1%; in data set [16], 1.2%. The Drug uptake in data set [3] is reported as 2.3%; in data set [17], 8.4%; in [18], 1%; in data set [4] it was 5.5%. The Retention_time in data set [5] is listed as 5.6 min.
For the compound `O=CN1C[C@@H](N2CCN(c3ncc(O)cn3)CC2)C[C@H]1C(=O)N1CCC(F)(F)C1`, the Drug uptake in data set [1] and in [4] was 5.5% each time. This compound yielded a Retention_time in data set [5] of 27.4 min.
`O=C(O)[C@H]1O[C@@H](OC(=O)N2C[C@@H](N3CCN(c4ncc(O)cn4)CC3)C[C@H]2C(=O)N2CCC(F)(F)C2)[C@H](O)[C@@H](O)[C@@H]1O` had a Drug uptake in data set [18] of 1.8%. In data set [5], this compound showed a Retention_time of 24.5 min.
As to `O=C(O)[C@H]1O[C@@H](OC(=O)N2C[C@@H](N3CCN(c4ncccn4)CC3)C[C@H]2C(=O)N2CCC(F)(F)C2)[C@H](O)[C@@H](O)[C@@H]1O`, the Drug uptake was 1.6% in data set [13]; 6% in data set [2]; 6% in data set [3]; 1.5% in [18]; 1.2% in [19]. In data set [5], the Retention_time is listed as 28.2 min.

The record behind these values is ChEMBL document CHEMBL3526145, “Metabolism, excretion, and pharmacokinetics of ((3,3-difluoropyrrolidin-1-yl)((2S,4S)-4-(4-(pyrimidin-2-yl)piperazin-1-yl)pyrrolidin-2-yl)methanone, a dipeptidyl peptidase inhibitor, in rat, dog and human” (Drug Metab Dispos, 2012).
